Where only a bound is given, the exact number is not on record here.

These results are taken from PMC11473416, “Coumarin-chalcone derivatives as dual NLRP1 and NLRP3 inflammasome inhibitors targeting oxidative stress and inflammation in neurotoxin-induced HMC3 and BE(2)-M17 cell models of Parkinson's disease” (Frontiers in Aging Neuroscience, 2024).

Series [1] is described as follows: cytotoxicity MTT assay in BE(2)-M17 cells. It is filed as cell-based, human. As to conditions: human, BE(2)-M17 neuroblastoma cells, MTT, 1–100 μM, 24 h. On the procedure:
(§1) Human HMC3 microglial (CRL-3304) and neuroblastoma BE(2)-M17 (CRL-2267) cells were obtained from American Type Culture Collection. BE(2)-M17 develops a better dopaminergic phenotype than SH-SY5Y when treated with retinoic acid to direct neuronal differentiation (Carvajal-Oliveros et al., [2022]). Cells were routinely maintained in Dulbecco's Modified Eagle Medium-Nutrient Mixture F12 (DMEM-F12) supplemented with 10% fetal bovine serum (FBS; Thermo Fisher Scientific, Waltham, MA, USA) in a 37°C incubator, with 95% relative humidity and 5% CO2 (NuAire, Plymouth, MN, USA).
(§2) To evaluate cytotoxicity of LM compounds and MPP^+, HMC3 (1 × 10^4) or BE(2)-M17 (2 × 10^4) cells were plated on 96-well dishes, grown for 20 h, and treated with LM compounds (1–100 μM) or MPP^+ [HMC3: 0–8 mM; BE(2)-M17: 0–5 mM]. Next day, 20 μl of tetrazolium dye 3-(4,5-dimethylthiazol-2-yl)-2,5-diphenyltetrazolium bromide (MTT, 5 mg/ml; Sigma-Aldrich) was added to the cells at 37°C for 3 h. The resulted insoluble purple formazan products were dissolved by lysis buffer (composition: 10% Triton X-100, 0.1 N HCl, 18% isopropanol). The absorbance of the dissolved product at optical density (OD) 570 nm was read by using a FLx800 fluorescence microplate spectrophotometer (Bio-Tek, Winooski, VT, USA). The half maximal inhibitory concentration (IC50) of LM compounds was determined through the construction of a dose-response curve. MPP^+ at 4 mM (HMC3 cell viability: 65%−69%) or 0.62 mM [BE(2)-M17 cell viability: 79%−84%] was selected to induce inflammation for further experiments.
For orientation: Tetrazolium dyes change colour on reduction, which living cells bring about.

Series [2] is described as follows: cytotoxicity MTT assay in HMC3 cells. It is filed as cell-based, human. As to conditions: human, HMC3 microglial cells, MTT, 1–100 μM, 24 h. Here is the method: as §1, §2
A short description of series [3]: DPPH free radical scavenging activity. Conditions: 10–160 μM, 30 min, room temperature. On the procedure:
Stable 1,1-diphenyl-2-picrylhydrazyl (DPPH) radical in ethanol (100 μM; Sigma-Aldrich) was used to measure the antioxidant activity of these LM compounds. After addition of quercetin (positive control) or LM compound (10–160 μM), the mixture was vortexed for 15 s and incubated at room temperature for 30 min. Subsequently, the mixture was measured spectrophotometrically at 517 nm (Multiskan GO microplate spectrophotometer; Thermo Fisher Scientific). The free radical scavenging activity was calculated as the percentage of DPPH discoloration using the formula 1 – (absorbance of sample/absorbance of control) × 100%, with half maximal effective concentration (EC50) calculated using the interpolation method.
Background: The DPPH test is a chemical assay of radical scavenging.

A short description of series [4]: oxygen radical antioxidant capacity (OxiSelect kit). As to conditions: at 4–100 μM concentration. On the procedure:
The test of oxygen radical antioxidant capacity (Ou et al., [2001]) was performed using OxiSelect™ kit (Cell Biolabs, San Diego, CA, USA). Briefly, trolox standards (2.5–50 μM) and LM compounds (4–100 μM) were prepared using a serial dilution in a mixture containing 50% acetone and 50% water. After adding fluorescein to blank (50% acetone/50% water), standards, or samples, the mixture was mixed and incubated at 37°C for 30 min. Subsequently, free radical initiator 2,2′-azobis(2-methylpropionamidine) dihydrochloride (AAPH) was added to generate peroxyl radicals (ROO•). The quenching of fluorescent probe over time was recorded at 480 nm excitation and 520 nm emission for 60 min (Bio-Tek FLx800). To quantify the oxygen radical absorbance capacity, the area under the curve (AUC) for blank, standard and samples were calculated. After subtraction of the blank, trolox equivalent (μM) of samples were determined using a calibration curve with trolox standards.

In general, IC50 refers to the point on the concentration scale where inhibition reaches its midpoint. High values mean a need for much substance, low ones inhibition by little substance. For the molecule `COc1ccccc1/C=C/C(=O)c1c(O)c2ccccc2oc1=O` [LM-009], the IC50 at 24 h in series [1] and in series [2] was above 100 µM each time.
One may read the EC50 as the concentration that produces a half-maximal response. Take `O=c1c(O)c(-c2ccc(O)c(O)c2)oc2cc(O)cc(O)c12` [Quercetin, reference compound]: the midpoint of the response in series [3], the EC50, lay at 21 µM. Further, the “oxygen radical antioxidant capacity, trolox equivalent” value in series [4] was 14 to 39 µM.
